Here are results for five compounds from patent publication US20240300934A1, “COMPOUNDS FOR MODULATING MYCOBACTERIUM TUBERCULOSIS RESPONSE” (priority 2021, published 2024).

In data set [1] the test system is Mtb in bone marrow-derived macrophages (BMDMs). In words: Mtb growth in primary murine bone marrow-derived macrophages (CFU). Conditions: 10 μM; added 2 hrs post-infection; eight-day time-course. The format is cell-based, Mycobacterium tuberculosis. How it is done: C57BL/6J wild type mice (Jackson Laboratories) were used for extraction of bone marrow-derived macrophages. Cells were harvested and expanded in DMEM containing 10% FBS, 15% L-cell conditioned media, 2 mM L-glutamine, 1 mM sodium pyruvate, and penicillin/streptomycin as needed in a 37° C. incubator in a 5% CO2 atmosphere. […] Macrophages were lysed with water containing 0.01% sodium dodecyl sulfate and a dilution series of the samples plated on 7H10 agar for CFU determination.

A further data set deals with Mtb-infected J774 cells. The conditions noted are these: 10 μM for 24 h; 5 days post-infection.
The next data set concerns Mtb in J774 cells. Put plainly: Mtb growth in J774 macrophage-like cells (mKO fluorescence). The format is cell-based, Mycobacterium tuberculosis. The conditions noted are these: for Mtb growth in J774 cells (in words): 10 μM, 6 days post-infection; for Inhibition of Mtb growth in J774 cells phenotype: compared to C6. How it is done: For the tertiary screen of selected hit compounds in J774 murine macrophage-like cells, 30,000 J774 cells/well were seeded in bar-coded 384-well black, clear bottom plates in a 30 μl volume in J774 infection media (DMEM+10% FBS+1 mM sodium pyruvate+2 mM L-glutamine) using a ThermoFisher Multidrop Combi reagent dispenser, one day prior to assay start. On the day of the assay, log-phase Mtb constitutively expressing mKO were pelleted and resuspended in 1 ml basal uptake buffer (0.5% bovine serum albumin+25 mM dextrose+0.5 mM MgCl2+1 mM CaCl2+0.1% gelatin in phosphate buffered saline (PBS), passed 6× though a tuberculin syringe with a 25 G×5/8″ needle, then resuspended in J774 infection media to a final OD600=0.2. 10 μl of this bacterial suspension was added to each well of the 384-well plates containing the J774 cells, followed by addition of 10 μl of the appropriate compounds (pre-aliquoted in v-bottom plates in a 1:1 mix of PBS:J774 infection media). Addition of Mtb and compounds were conducted using a Janus Ministation. For each test plate, two columns of controls (16 wells each) were included, with one column consisting of treatment with DMSO as a carrier control (negative control), and the other column consisting of treatment with 5 μM rifampicin (positive control). This tertiary assay was done as a dose-response assay in duplicate runs, with compounds tested beginning at a final concentration of 20 μM and two-fold dilutions down to 0.039 μM. Plates were kept in humidified ziplock bags in a 37° C., 5% CO2 incubator. 6 days post-infection, mKO fluorescence signal was read using a PerkinElmer EnVision multimode plate reader (bottom read filter, excitation 530/8 nm, Bodipy TMR D555 single mirror, emission 579/25 nm). mKO fluorescence in DMSO-treated control samples were defined as 100% growth, and fluorescence observed in treatment conditions calculated as a percentage from that set value.
For J774 infection in 96-well plates, 180,000 J774 cells were seeded per well in 180 μl of J774 infection media one day prior to infection. On the day of the assay, log-phase Mtb constitutively expressing mKO were pelleted and resuspended in 1 ml basal uptake buffer, passed 6× though a tuberculin syringe with a 25 G×5/8″ needle, then resuspended in J774 infection media to a final OD600=0.2. Media was removed from 96-well plate containing the J774 cells, with 140 μl of fresh J774 infection media added back to each well. 40 μl of the Mtb suspension at OD600=0.2 was added to each well, followed by addition of appropriate concentration of compound or DMSO in a 20 μl final volume in J774 infection media (compound final concentration 10 μM, rifampicin final concentration 5 μM, DMSO final concentration 0.1%/well). Bacterial mKO fluorescence was read immediately after infection using a Biotek Synergy Neo2 microplate reader (bottom read monochromator, excitation 543/10 nm, emission 565/10 nm), and again 6 days post-infection. Plates were kept in humidified ziplock bags in a 37° C., 5% CO2 incubator. mKO fluorescence in DMSO-treated control samples were defined as 100% growth, and fluorescence observed in treatment conditions calculated as a percentage from that set value.

The test system of a further data set is J774 cells. In words: Intracellular drug accumulation assay in J774 cells. Conditions: 24 h exposure; uninfected J774 cells.
Data set [2] has as its system Mtb. Put plainly: Mtb growth assay in cholesterol media (OD600). The format is cell-based, Mycobacterium tuberculosis. The conditions noted are these: for Mtb growth in cholesterol media (in words): 10 μM, OD600; for Growth inhibition in cholesterol media phenotype: compared to C6.
Data set [3] relates to Mtb. Put plainly: Intrabacterial drug accumulation assay. The conditions noted are these: 24 h exposure; 7H9 pH 7 ± 250 mM NaCl.
Data set [4] has as its system rv2390c′::GFP reporter Mtb strain. The format is cell-based, Mycobacterium tuberculosis. Conditions: for rv2390c′::GFP reporter signal upon Mtb exposure to high [Cl−] (in words): 10 μM, 250 mM NaCl; for rv2390c′::GFP Cl− response phenotype: compared to C6.
The subject of data set [5] is Mtb. The conditions noted are these: subset of mice failing to respond; cited from earlier work.
For data set [6], the system named is Mtb. Conditions: mice that do not form caseous necrotic lesions; cited from earlier work.

`COc1ncc(CN2CCN(c3nc4ccccc4o3)CC2)cn1` [JSF-4271, 2-(4-((2-methoxypyrimidin-5-yl)methyl)piperazin-1-yl)benzo[d]oxazole]: the “Mtb bacterial load / growth in primary murine BMDM (in words)” value in data set [1] is given as “loss of the ability to inhibit Mtb growth”. Further, in the data set with Mtb-infected J774 cells, the “accumulation in Mtb-infected J774 cells” value was “minimal accumulation”. Also, in the data set on Mtb in J774 cells, the “Mtb growth in J774 cells (in words)” value is “loss of the ability to inhibit Mtb growth” and the “Inhibition of Mtb growth in J774 cells phenotype” value (from here on “Inhibition of Mtb growth”) is reported as “N”. For the same compound, in the data set on J774 cells, the “intracellular accumulation in J774 cells” value is “minimal accumulation”. Besides, in the data set on Mtb [2], the “Mtb growth in cholesterol media (in words)” value was “no longer inhibited Mtb growth in cholesterol media” and the “Growth inhibition in cholesterol media phenotype” value (“Growth inhibition” for short) is listed as “N”. Further, in the data set on Mtb [3], the “intrabacterial accumulation in Mtb” value is listed as “decreased accumulation”. In data set [4], the “rv2390c′::GFP reporter signal upon Mtb exposure to high [Cl−] (in words)” value is reported as “lost the ability” and the “rv2390c′::GFP Cl− response phenotype” value was “N”.
Regarding `COc1nc2ccc(Br)cc2cc1[C@@H](c1ccccc1)[C@@](O)(CCN(C)C)c1cccc2ccccc12` [bedaquiline], the “response in C3HeB/FeJ mice” value in the data set on Mtb [5] was “heterogeneous response”. In the data set with Mtb [6], the “efficacy in BALB/c mice” value is given as “uniform efficacy across animals”.
For the compound `NC(=O)c1cnccn1` [pyrazinamide], the “response in C3HeB/FeJ mice” value in the data set on Mtb [5] is listed as “heterogeneous response”. Also, the “efficacy in BALB/c mice” value with Mtb [6] is “uniform efficacy across animals”.
`CCSc1ccc(CN2CCN(c3nc4ccccc4o3)CC2)cc1` [JSF-4300, 2-(4-(4-(ethylthio)benzyl)piperazin-1-yl)benzo[d]oxazole]: the “accumulation in Mtb-infected J774 cells” value with Mtb-infected J774 cells is listed as “robust accumulation”. Besides, in the data set on Mtb in J774 cells, the “Mtb growth in J774 cells (in words)” value is listed as “continuing to demonstrate the phenotypes seen with the parental C6 compound” and the “Inhibition of Mtb growth” value is reported as “Y”. In the data set with J774 cells, the “intracellular accumulation in J774 cells” value is on record as “robust accumulation”. Besides, in the data set on Mtb [2], the “Mtb growth in cholesterol media (in words)” value is reported as “continuing to demonstrate the phenotypes seen with the parental C6 compound” and the “Growth inhibition” value is given as “Y”. For the same compound, the “intrabacterial accumulation in Mtb” value in the data set on Mtb [3] is “robust accumulation”. In data set [4], the “rv2390c′::GFP reporter signal upon Mtb exposure to high [Cl−] (in words)” value was “continuing to demonstrate the phenotypes seen with the parental C6 compound” and the “rv2390c′::GFP Cl− response phenotype” value is reported as “Y”.
Take `c1ccc2oc(N3CCN(Cc4cncnc4)CC3)nc2c1` [JSF-4297, 2-(4-(pyrimidin-5-ylmethyl)piperazin-1-yl)benzo[d]oxazole]: the “Mtb bacterial load / growth in primary murine BMDM (in words)” value in data set [1] is “loss of the ability to inhibit Mtb growth”. Besides, in the data set on Mtb in J774 cells, the “Mtb growth in J774 cells (in words)” value was “loss of the ability to inhibit Mtb growth” and the “Inhibition of Mtb growth” value is given as “N”. The “intracellular accumulation in J774 cells” value in the data set on J774 cells is reported as “no detectable accumulation”. For the same compound, in the data set with Mtb [2], the “Mtb growth in cholesterol media (in words)” value is listed as “no longer inhibited Mtb growth in cholesterol media” and the “Growth inhibition” value was “N”. Also, in data set [4], the “rv2390c′::GFP reporter signal upon Mtb exposure to high [Cl−] (in words)” value was “lost the ability” and the “rv2390c′::GFP Cl− response phenotype” value is “N”.
